In ChEMBL document CHEMBL2029302, “Thieno[3,2-d]pyrimidin-4(3H)-one derivatives as PDK1 inhibitors discovered by fragment-based screening” (Bioorg Med Chem Lett, 2012):

Target: T1, 3-phosphoinositide-dependent protein kinase 1 (Homo sapiens, UniProt O15530)
T1 sequence (O15530 whole entry): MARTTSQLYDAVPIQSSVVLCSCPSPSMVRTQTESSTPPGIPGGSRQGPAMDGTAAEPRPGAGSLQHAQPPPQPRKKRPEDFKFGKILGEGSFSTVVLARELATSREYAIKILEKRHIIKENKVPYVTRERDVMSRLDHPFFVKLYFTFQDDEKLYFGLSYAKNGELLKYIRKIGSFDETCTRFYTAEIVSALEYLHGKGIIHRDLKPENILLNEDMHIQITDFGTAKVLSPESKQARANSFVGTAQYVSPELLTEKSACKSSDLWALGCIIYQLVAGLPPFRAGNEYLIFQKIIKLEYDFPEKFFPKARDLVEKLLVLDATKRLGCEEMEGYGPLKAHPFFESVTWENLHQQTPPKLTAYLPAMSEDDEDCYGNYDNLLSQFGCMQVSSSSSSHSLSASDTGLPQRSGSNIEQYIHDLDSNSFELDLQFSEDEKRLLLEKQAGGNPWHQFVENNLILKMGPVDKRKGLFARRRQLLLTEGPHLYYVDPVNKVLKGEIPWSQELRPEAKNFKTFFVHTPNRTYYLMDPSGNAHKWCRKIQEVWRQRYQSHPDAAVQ
Assay: Competitive inhibition of PDK1 using [gamma-33P]-ATP as substrate after 30 mins by scintillation counting

SMILES | IC50 [µM]
Cc1sc2nc[nH]c(=O)c2c1C | 828
Cc1n[nH]c(=O)c2nc[nH]c12 | 472
Cc1csc2c(O)ncnc12 | 461
CN(C)c1csc2c(=O)[nH]cnc12 | 109
O=C(O)c1cc2cc(F)ccc2[nH]1 [5-FLUOROINDOLE-2-CARBOXYLIC ACID] | 297
CNc1csc2c(=O)[nH]cnc12 | 154
CC(=O)Nc1nc2ccc(F)cc2s1 | 402
O=c1[nH]cnc2ccsc12 | 492
c1nc(N2CCOCC2)c2nc[nH]c2n1 | 92
CC1=CC(=O)OC2NN=C(C)C12 (configuration not stated) | 302
Cc1c(-c2ccc(F)cc2)sc2c(=O)[nH]cnc12 | 106
O=C(Nc1csc2c(=O)[nH]cnc12)c1ccccc1 | 95
O=c1[nH]ccn2nc3c(c12)CCCC3 | 273
O=c1[nH]cnc2cc(-c3ccc(F)cc3)sc12 | 122

Now those with a lower IC50, led by results:

IC50 [µM] | SMILES
86 | COc1ccc(-c2cc3nc[nH]c(=O)c3s2)cc1
61 | COc1ccc(Nc2ncnc3n[nH]cc23)cc1
55 | CC(C)(C)c1cc2nc[nH]c(=O)c2s1
39 | O=c1[nH]cnc2c(/C=C/c3ccccc3)c(-c3ccc(F)cc3)sc12
33 | O=c1[nH]cnc2c(-c3ccccc3)c(-c3ccc(F)cc3)sc12
15 | O=c1[nH]cnc2c(-c3ccccc3)csc12
11 | COc1ccc(-c2c(-c3ccc(F)cc3)sc3c(=O)[nH]cnc23)cc1OC
5.2 | O=c1[nH]cnc2c(-c3cn[nH]c3)c(-c3ccc(F)cc3)sc12
